Results on 4 compounds are retold here after BindingDB's records for patent US20250368667 (Shanghai Qilu Pharmaceutical Research and Development Centre, 2025).

The structures appear in SMILES notation. pIC50: −log10 of the molar value.

The target of the experiment is T1, Ubiquitin carboxyl-terminal hydrolase 1 (Homo sapiens, UniProt O94782).
T1 sequence (O94782 whole entry): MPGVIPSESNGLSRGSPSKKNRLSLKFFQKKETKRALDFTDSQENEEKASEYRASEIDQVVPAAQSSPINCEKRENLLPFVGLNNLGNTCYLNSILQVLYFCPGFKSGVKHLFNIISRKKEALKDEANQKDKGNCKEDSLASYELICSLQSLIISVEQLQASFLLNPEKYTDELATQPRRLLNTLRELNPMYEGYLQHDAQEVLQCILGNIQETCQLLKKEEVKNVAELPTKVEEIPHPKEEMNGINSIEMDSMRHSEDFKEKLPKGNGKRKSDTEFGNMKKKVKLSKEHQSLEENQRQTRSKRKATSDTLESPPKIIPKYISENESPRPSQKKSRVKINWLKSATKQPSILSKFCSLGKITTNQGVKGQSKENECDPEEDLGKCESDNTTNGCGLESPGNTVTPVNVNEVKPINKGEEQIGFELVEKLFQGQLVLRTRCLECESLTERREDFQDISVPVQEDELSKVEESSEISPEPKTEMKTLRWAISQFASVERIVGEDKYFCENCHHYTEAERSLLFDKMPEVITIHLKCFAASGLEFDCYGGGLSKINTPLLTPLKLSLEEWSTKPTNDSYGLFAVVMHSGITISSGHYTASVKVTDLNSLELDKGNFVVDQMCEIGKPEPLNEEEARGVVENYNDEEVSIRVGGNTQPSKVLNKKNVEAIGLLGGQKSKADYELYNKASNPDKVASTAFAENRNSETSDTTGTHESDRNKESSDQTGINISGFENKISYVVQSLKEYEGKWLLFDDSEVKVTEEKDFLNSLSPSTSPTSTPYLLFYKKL
The experiment is described as follows: Experimental Method of USP1 Enzyme Activity.
Excerpt: USPli compounds were screened by USP1 enzyme activity detection experiment.1.1 Experimental materials: recombinant human His6-USP1/His6-UAF1 composite protein.
Consider `[2H]C([2H])([2H])Oc1ncnc(C2CC2)c1-c1ncc2c3cn(C)nc3n(Cc3ccc(-c4nc(C(F)(F)F)cn4C(C)C)cc3)c2n1` [US20250368667, Compound 162], for which the pIC50 (as a rule, the negative decadic logarithm of the IC50, by convention in mol/L) was 8.26.

The compound `COc1cnn(C2CC2)c1-c1ncc2c3ccncc3n(Cc3ccc(-c4nc(C(F)(F)F)cn4C)cc3)c2n1` [US20250368667, Compound 103] gave a pIC50 of 7.91. Against the preceding compound, the pIC50 is 0.35 log units lower.

Turning to `COc1ncnc(C2CC2)c1-c1ncc2c3ccc(C(C)C)nc3n(Cc3ccc4c(c3)CCCn3cc(C(F)(F)F)nc3-4)c2n1` [US20250368667, Compound 105], the negative-log IC50 (pIC50) was 8.29.

`COc1ncnc(C2CC2)c1-c1ncc2c3ccc(=O)[nH]c3n(Cc3ccc4c(c3)CCCn3cc(C(F)(F)F)nc3-4)c2n1` [US20250368667, Compound 159] showed a pIC50 of 7.78.
